Assay results published in US8946224B2, “Substituted [1,2,4]triazolo[4,3-A]pyrazines for medicaments and pharmaceutical compositions” (Redx Pharma Limited, priority 2010, dated 2015).
pIC50: −log10 of the molar value. Where two headings read alike, the source gives them in different places.

Tests used:
[1] = system: PathHunter NHRPro cell lines; test: PathHunter NHRPro cell assay, antagonist format (Examples 90-92); format: cell-based; settings: for Emax: read-out: Max Response; for pIC50: read-out: RC50 (IC50)
Description: Methodology for Examples 90-92 Cell Handling
PathHunter NHRPro cell lines were expanded from freezer stocks in T25 flasks according to standard procedures and maintained in selective growth media prior to assay.
Once it was established that the cells were healthy and growing normally, cells were passaged from flasks using cell dissociation reagent and seeded into white walled clear bottom 384-well microplates for compound profiling.
For profiling, cells were seeded at a density of 10000 cells per well in a total volume of 20 μL and were allowed to adhere and recover overnight prior to compound addition. Media contained charcoal-dextran filtered serum to reduce the level of hormones present.
Agonist dose curves were performed the morning of profiling to determine the EC80 value for the following antagonist testing with compounds. 5 μL of 5× agonist was added to each well with an equal concentration of vehicle present.
EC80 agonist concentration was determined directly from agonist dose curve.
For antagonist determination, cells were pre-incubated with antagonist followed by agonist challenge at the EC80 concentration.
5 μL of 5× compound added to cells and incubated at 37° C. for 30 minutes.
5 μL of 6× EC80 agonist added to cells and incubated at 37° C. for 90 minutes (180 minutes for EDG2 and EDG8).
After appropriate compound incubation, assay signal was generated through a single addition of 15 μL (50% v/v) of PathHunter Detection reagent cocktail for agonist and antagonist assays respectively followed by one hour incubation at room temperature.
Microplates were read following signal generation with a PerkinElmer Envision™ instrument for chemiluminescent signal detection.
Dose curves in the presence and absence of compound were plotted using GraphPad Prism or Activity Base.

recombinant human MAO-B = target: T1, recombinant human MAO-B (Homo sapiens, UniProt P27338); test: MAO-B inhibition, kynuramine substrate, LC-MS/MS of 4-hydroxyquinoline (Example 99); format: biochemical; settings: for remaining activity at 0.001 µM: 0.001 μM test compound; for remaining activity at 0.001 µM / remaining activity at 0.01 µM / remaining activity at 0.04 µM / remaining activity at 0.1 µM / remaining activity at 0.4 µM / remaining activity at 1 µM / remaining activity at 10 µM: kynuramine 25 μM, read-out: Mean % Activity Remaining (n = 2); for remaining activity at 0.01 µM: 0.010 μM test compound; for remaining activity at 0.04 µM: 0.04 μM test compound; for remaining activity at 0.1 µM: 0.1 μM test compound; for remaining activity at 0.4 µM: 0.4 μM test compound; for remaining activity at 1 µM: 1 μM test compound; for remaining activity at 10 µM: 10 μM test compound; for pIC50: MAO-B, substrate kynuramine 25 μM
T1 sequence (P27338 1-520): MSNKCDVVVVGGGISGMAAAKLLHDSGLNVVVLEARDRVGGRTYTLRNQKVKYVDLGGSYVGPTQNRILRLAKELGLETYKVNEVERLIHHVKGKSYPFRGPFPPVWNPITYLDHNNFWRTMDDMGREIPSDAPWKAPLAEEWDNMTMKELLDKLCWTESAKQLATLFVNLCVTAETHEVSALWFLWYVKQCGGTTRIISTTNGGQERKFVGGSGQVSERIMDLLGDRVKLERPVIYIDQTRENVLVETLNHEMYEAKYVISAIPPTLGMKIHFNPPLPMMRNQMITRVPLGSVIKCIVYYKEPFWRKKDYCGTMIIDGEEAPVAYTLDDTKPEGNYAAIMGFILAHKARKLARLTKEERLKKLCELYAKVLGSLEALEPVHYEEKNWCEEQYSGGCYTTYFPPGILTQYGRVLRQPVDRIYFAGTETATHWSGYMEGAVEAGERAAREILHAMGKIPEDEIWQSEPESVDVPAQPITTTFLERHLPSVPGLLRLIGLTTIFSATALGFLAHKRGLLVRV
Description: Eight test compound concentrations (0.001-10 μM; final DMSO concentration 0.5%) were incubated with recombinant human MAO-B (2 μg/mL) in the presence of the probe substrate kynuramine (25 μM) for 25 min at 37° C. Each test compound concentration was assessed in duplicate. […] The reactions were terminated by addition of methanol containing internal standard for analytical quantification. The quenched samples were incubated at 4° C. for 10 min and centrifuged at 4° C. for 10 min. The supernatant was removed and analysed by LC-MS/MS for the probe metabolite 4-hydroxyquinoline. Generic Cyprotex LC-MS/MS analytical conditions were used.
A decrease in the formation of the metabolite compared to vehicle control was used to calculate an IC50 value.

HepG2 cells = test: HepG2 cytotoxicity, MTT, 72 hours (Examples 93-95); format: cell-based; settings: for MEC (minimum effective concentration that significantly crosses vehicle threshold) / AC50: Cell Loss; for AC50: Homo sapiens, HepG2, read-out: AC50 (concentration at which 50% maximum effect is observed)
Description: Methodology for Examples 93-95
A number of analogues were tested for their ability to kill cancer cells.
HepG2 cells were plated on 96-well tissue culture treated polystyrene plates at 0.5×10^4 cells in 100 μL per well. After 24 hr the cells are dosed with test compound at a range of concentrations and incubated for 72 hours. One hour prior to the end of the incubation period, the cells are loaded with MU [yellow; 3-(4,5-dimethyl-2-thiazolyl)-2,5-diphenyl-2H-tetrazolium bromide], the plates are dried and re-solubilised using DMSO. The plates are then scanned using SpectraFluor Plus (TECAN).
Cytotoxicity was assessed using MU. The assay provides a measurement of mitochondrial dehydrogenase activity and cell loss.
A decrease can indicate a loss of cells indicating toxicity due to necrosis, apoptosis or a reduction in cellular proliferation.
A decrease can also indicate an effect on mitochondrial function as mitochondrial dehydrogenasesreduce the MTT [yellow; 3-(4,5-dimethyl-2-thiazolyl)-2,5-diphenyl-2H-tetrazolium bromide] to formazan. The formazan is detected in this assay.
The cells were dosed at concentrations of 0.04, 0.1, 0.4, 1, 4, 10, 40 and 100 μM. The assay was repeated three times at each concentration.
AC50=The concentration at which 50% maximum effect is observed for each cell health parameter.
The cells were dosed at concentrations of 0.02, 0.05, 0.2, 0.5, 2, 5, 20 and 50 μM. The assay was repeated three times at each concentration.
The cells were dosed at concentrations of 0.04, 0.1, 0.4, 1, 4, 10, 40 and 100 μM for bexarotene and the compound of formula 102 when Z is CH═NOH (compound 13a). The cells were dosed at concentrations of 0.02, 0.05, 0.2, 0.5, 2, 5, 20 and 50 μM for the compound of formula 102 when Z is CH═NOMe (compound 13b). The assay was repeated three times at each concentration.

[2] = Example 95, dosed 0.04-100 μM (compound 13b 0.02-50 μM)

## CCCCC(=O)N(Cc1ccc(-c2ccccc2-c2nnn[nH]2)cc1)[C@H](C(=O)O)C(C)C [Valsartan]
[1]; AGTR1, Arrestin
  Emax: 106%
  pIC50: 8.77

## CCCCc1nc(Cl)c(C=NOC)n1Cc1ccc(-c2ccccc2-c2nn[nH]n2)cc1 [Compound 4b, 1-((2′-(2H-Tetrazol-5-yl)-[1′,1′-biphenyl]-4-yl)methyl)-2-butyl-4-chloro-1H-imidazole-5-carbaldehyde O-methyl oxime]
[1]; AGTR1, Arrestin
  Emax: 97.4%
  pIC50: 6.61

## CCOc1nc2cccc(C=NOC)c2n1Cc1ccc(-c2ccccc2-c2nnn[nH]2)cc1 [Compound 10b, 1-((2′-(1H-tetrazol-5-yl)-[1,1′-biphenyl]-4-yl)methyl)-2-ethoxy-1H-benzo[d]imidazole-7-carbaldehyde O-methyl oxime]
[1]; AGTR1, Arrestin
  Emax: 98.8%
  pIC50: 7.31

## CCCCc1nc(Cl)c(C=NO)n1Cc1ccc(-c2ccccc2-c2nn[nH]n2)cc1 [Compound 4a, 1-((2′-(2H-Tetrazol-5-yl)-[1,1′-biphenyl]-4-yl)methyl)-2-butyl-4-chloro-1H-imidazole-5-carbaldehyde oxime]
[1]; AGTR1, Arrestin
  Emax: 96.7%
  pIC50: 6.96

## C[C@H](NCc1ccc(OCc2cccc(F)c2)cc1)C(N)=O [Safinamide, safinamide, reference compound]
Recombinant human MAO-B
  remaining activity at 0.001 µM: 101%
  remaining activity at 0.01 µM: 95%
  remaining activity at 0.04 µM: 79%
  remaining activity at 0.1 µM: 62%
  remaining activity at 0.4 µM: 31%
  remaining activity at 1 µM: 13%
  remaining activity at 10 µM: 2%

## Cc1ccc(F)cc1C(=O)Nc1ccc(C(=O)N2Cc3cccn3Cc3ccccc32)c(Cl)c1 [Lixivaptan, lixivaptan, reference compound]
[1]; AVPR2, Arrestin
  Emax: 102%
  pIC50: 8.89

## Cn1c(CCCC(=O)O)nc2cc(N(CCCl)CCCl)ccc21 [Bendamustine, bendamustine, reference compound]
HepG2 cells; Example 93, dosed 0.04-100 μM
  MEC (minimum effective concentration that significantly crosses vehicle threshold): 40 µM
  AC50: 92300 nM

## CCOc1nc2cccc(C=NO)c2n1Cc1ccc(-c2ccccc2-c2nnn[nH]2)cc1 [Compound 10a, 1-((2′-(1H-Tetrazol-5-yl)-[1,1′-biphenyl]-4-yl)methyl)-2-ethoxy-1H-benzo[d]imidazole-7-carbaldehyde oxime]
[1]; AGTR1, Arrestin
  Emax: 101%
  pIC50: 7.33

## Cn1c(CCCC=O)nc2cc(N(CCCl)CCCl)ccc21 [Compound 6a, 4-(5-(Bis(2-chloroethyl)amino)-1-methyl-1H-benzo[d]imidazol-2-yl)butanal]
HepG2 cells; Example 93, dosed 0.04-100 μM
  MEC (minimum effective concentration that significantly crosses vehicle threshold): 4 µM
  AC50: 5830 nM
HepG2 cells; Example 93, 0.04-100 μM, 72 hours
  Activity in HepG2 cell assay (in words): exhibited a higher activity than compound 6b

## C=C(c1ccc(C=NO)cc1)c1cc2c(cc1C)C(C)(C)CCC2(C)C [Compound 13a, 4-(1-(3,5,5,8,8-Pentamethyl-5,6,7,8-tetrahydronaphthalen-2-yl)vinyl)benzaldehyde oxime]
HepG2 cells; [2]
  MEC (minimum effective concentration that significantly crosses vehicle threshold): 40 µM
  AC50: 15800 nM

## Cc1ccc(F)cc1C(=O)Nc1ccc(CN2Cc3cccn3Cc3ccccc32)c(Cl)c1 [Compound 15a, N-(4-((5H-Benzo[e]pyrrolo[1,2-a][1,4]diazepin-10(11H)-yl)methyl)-3-chlorophenyl)-5-fluoro-2-methylbenzamide]
[1]; AVPR2, Arrestin
  Emax: 108%
  pIC50: 8.42

## CCOc1nc2cccc(C(=O)O)c2n1Cc1ccc(-c2ccccc2-c2nnn[nH]2)cc1 [Candesartan]
[1]; AGTR1, Arrestin
  Emax: 101%
  pIC50: 8.01

## CC(=O)c1c(C)c2cnc(Nc3ccc(N4CCNCC4)cn3)nc2n(C2CCCC2)c1=O [PD-0332991]
HepG2 cells; Example 94, dosed 0.02-50 μM
  MEC (minimum effective concentration that significantly crosses vehicle threshold): 0.2 µM
  AC50: 1930 nM

## C=C(c1ccc(C=NOC)cc1)c1cc2c(cc1C)C(C)(C)CCC2(C)C [Compound 13b, 4-(1-(3,5,5,8,8-Pentamethyl-5,6,7,8-tetrahydronaphthalen-2-yl)vinyl)benzaldehyde O-methyl oxime]
HepG2 cells; [2]
  MEC (minimum effective concentration that significantly crosses vehicle threshold): 50 µM
  AC50: 45600 nM

## CON=C[C@H](C)NCc1ccc(OCc2cccc(F)c2)cc1 [Compound 31b, (S)-2-(4-(3-Fluorobenzyloxy)benzylamino)propanal O-methyl oxime]
Recombinant human MAO-B
  remaining activity at 0.001 µM: 90%
  remaining activity at 0.01 µM: 75%
  remaining activity at 0.04 µM: 57%
  remaining activity at 0.1 µM: 34%
  remaining activity at 0.4 µM: 15%
  remaining activity at 1 µM: 6%
  remaining activity at 10 µM: 1%
  pIC50: 7.34

## Cc1ccc(F)cc1CNc1ccc(C(=O)N2Cc3cccn3Cc3ccccc32)c(Cl)c1 [Compound 15b, (5H-Benzo[e]pyrrolo[1,2-a][1,4]diazepin-10(11H)-yl)(2-chloro-4-(5-fluoro-2-methylbenzylamino)phenyl)methanone]
[1]; AVPR2, Arrestin
  Emax: 79.4%
  pIC50: 5.63

## C[C@@H](C=NO)NCc1ccc(OCc2cccc(F)c2)cc1 [Compound 31a, (S)-2-(4-(3-Fluorobenzyloxy)benzylamino)propanal oxime]
Recombinant human MAO-B
  remaining activity at 0.001 µM: 90%
  remaining activity at 0.01 µM: 84%
  remaining activity at 0.04 µM: 73%
  remaining activity at 0.1 µM: 65%
  remaining activity at 0.4 µM: 50%
  remaining activity at 1 µM: 26%
  remaining activity at 10 µM: 4%
  pIC50: 6.61

## Cn1c(CCCC=NO)nc2cc(N(CCCl)CCCl)ccc21 [Compound 6b, 4-(5-(Bis(2-chloroethyl)amino)-1-methyl-1H-benzo[d]imidazol-2-yl)butanal oxime]
HepG2 cells; Example 93, dosed 0.04-100 μM
  MEC (minimum effective concentration that significantly crosses vehicle threshold): 10 µM
  AC50: 17300 nM

## CCCCc1nc(Cl)c(CO)n1Cc1ccc(-c2ccccc2-c2nn[nH]n2)cc1 [Losartan]
[1]; AGTR1, Arrestin
  Emax: 98.6%
  pIC50: 8.09
